{
  "source": "patent US9283234B2",
  "about": "“Compositions and methods for suppressing endometrial proliferation” (REPROS THERAPEUTICS INC., priority 2006, dated 2016)",
  "key": {"[1]": {"assay": "estrogenic, androgenic, anti-estrogenic and anti-androgenic activities", "description": "These methods include receptor binding and in vivo bioassays such as anti-McGinty, anti-Clauberg, glucocorticoid, estrogenic, androgenic, anti-glucocorticoid (AG), anti-estrogen, and anti-androgen activities as well as post-coital and anti-ovulatory activities where in the leading compounds of the instant invention are used as a reference."}, "[2]": {"assay": "Measuring serum cortisol in rats", "type": "in vivo"}, "[3]": {"system": "pain associated with endometriosis", "assay": "Six month endometriosis study: pain diaries and symptom surveys", "type": "in vivo, pre-menopausal adult women", "parameters": "key to score for intensity of pain on a bad day: 0-10 scale; 0 = no pain, 10 = extreme pain", "description": "Pain reduction also occurred more rapidly than with the active control, LUCRIN. The response of pain to treatment in this study was analyzed in two ways. Patients in the study maintained daily pain diaries to record the severity and frequency of pain. In addition, at each office visit, patients filled out endometriosis symptom surveys that included a questionnaire that evaluated intensity of pain on a bad day on a scale of 0-10 with 10 being the greatest intensity. […] There appeared to be a dose dependent effect on pain reduction. […] This decrease in duration of pain was statistically better (p=0.0012) than the 117.8 (74%; standard deviation 51.4 days) pain free days achieved with LUCRIN. […] Patients on CDB-4124 12.5 mg and 25 mg doses had 115.9 (66%; standard deviation 69.2 days) and 133.6 (75%; standard deviation 27.4 days) pain free days, respectively. […] The 25 mg and 12.5 mg doses of CDB-4124 were not statistically different from LUCRIN. […] The intensity of pain was asked by the question: “On a scale of 1-10, with 0 being no pain and 10 being extreme pain, how intense was your pain on a bad day?” The mean scores for intensity of pain at baseline were 6.3 for the CDB-4124 groups and 6.1 for the LUCRIN group. […] At month three all four active treatment groups had statistically significant reduction in pain compared with baseline, with the following scores: 3.7 (p=0.03) for 12.5 mg CDB-4124, 3.2 (p=0.03) for 25 mg CDB-4124, 1.6 (p=0.015) for 50 mg CDB-4124 and 1.5 (p=0.016) for LUCRIN. These dose related reductions continued until month six when the values for pain intensity were 2.0 (p=0.008), 2.8 (p=0.023), 0.6 (p=0.004) and 0.7 (p=0.016), respectively. Two months after stopping treatment pain returned and was of similar intensity in all four treatment groups."}, "[4]": {"assay": "Six month endometriosis study: estrogen and biomarkers of bone resorption", "type": "in vivo, pre-menopausal adult women", "protocol": "Thirty-nine pre-menopausal adult women diagnosed with endometriosis were the subject of a six month study of Proellex™ (CDB-4124) in the treatment of endometriosis. The study included three dose levels of CDB-4124 as well as a positive control arm. The positive control was LUCRIN, a GnRH agonist, commonly used for the treatment of endometriosis (also known as LUPRON. CDB-4124 was administered in a double blinded fashion as a daily oral capsule at dosages of 12.5 mg/day (n=2), 25 mg/day (n=3) and 50 mg/day (n=3). Another group (n=4) were injected with a slow release formulation of LUCRIN once per month as a positive control."}, "[5]": {"system": "endometrium", "assay": "Six month endometriosis study: endometrial thickness (ultrasound) / endometrial proliferation", "type": "in vivo, pre-menopausal adult women", "description": "Comparisons were made to both baseline and visit one ultrasound measurements of endometrial thickness. […]"}, "[6]": {"assay": "Six month endometriosis study: side effects and bleeding", "type": "in vivo, pre-menopausal adult women", "details": "for non-menstrual spotting and bleeding with excessive endometrial thickening, D&C performed: treatment phase", "description": "Although this was a small study and no definitive conclusions can be made from the safety data, there was no single signal of safety observed.\nA similar event was not seen at the 50 mg dose during the treatment phase. Greater than normal bleeding occurred in two patients in the 50 mg CDB-4124 group after treatment was stopped and a D&C was performed in one and the other successfully managed conservatively."}, "[7]": {"assay": "Measuring serum corticosterone in rats"}, "[8]": {"details": "Attardi et al., 2002; cited from earlier work"}},
  "data": [
    {"smiles": "COCC(=O)[C@@]1(OC(C)=O)CC[C@H]2[C@@H]3CCC4=CC(=O)CCC4=C3[C@@H](c3ccc(N(C)C)cc3)C[C@@]21C", "note": "[CDB-4124, 21-methoxy-17α-acetoxy-11β-(4 N,N-dimethylaminophenyl)-19-norpregna-4,9-diene-3,20-dione]", "values": [
      {"measurement": "estrogenic, androgenic, anti-estrogenic, and anti-androgenic activities", "setting": "[1]", "result": "lack"},
      {"measurement": "serum cortisol versus control group", "setting": "[2]; 10 mg/kg, 21 days of chronic dosing, FIG. 1", "result": "significantly higher levels of serum cortisol"},
      {"measurement": "dose-dependent effect on serum cortisol", "setting": "[2]; increasing doses, FIG. 2", "result": "increased cortisol"},
      {"measurement": "days of pain over the first three months versus highest dose of CDB-4124 or LUCRIN", "setting": "[3]; 25 mg and 12.5 mg daily oral", "result": "more days of pain"},
      {"measurement": "relief from pain (intensity) by the first month", "setting": "[3]; 25 mg and 50 mg groups", "result": "Statistically significant relief from pain"},
      {"measurement": "days of pain at the end of the first month compared with baseline", "setting": "[3]; 50 mg, p=0.031", "result": "statistically significant reduction in days of pain"},
      {"measurement": "distress related to pain over the six month exposure", "setting": "[3]; all doses, on average", "result": "reduced distress related to pain"},
      {"measurement": "mean score for intensity of pain on a bad day", "setting": "[3]; baseline, scale 0-10", "result": 6.3},
      {"measurement": "score for intensity of pain on a bad day", "setting": "[3]; month six, 12.5 mg", "result": 2.0},
      {"measurement": "score for intensity of pain on a bad day", "setting": "[3]; month six, 25 mg", "result": 2.8},
      {"measurement": "score for intensity of pain on a bad day", "setting": "[3]; month six, 50 mg", "result": 0.6},
      {"measurement": "score for intensity of pain on a bad day", "setting": "[3]; month three, 12.5 mg", "result": 3.7},
      {"measurement": "score for intensity of pain on a bad day", "setting": "[3]; month three, 25 mg", "result": 3.2},
      {"measurement": "score for intensity of pain on a bad day", "setting": "[3]; month three, 50 mg", "result": 1.6},
      {"measurement": "estrogen concentration (mean)", "setting": "[4]; all doses of CDB-4124", "result": "> 40", "unit": "pg/mL"},
      {"measurement": "biomarkers of bone resorption compared with baseline", "setting": "[4]; month three (LUCRIN, p=0.023), three and six months (any dose arm of CDB-4124)", "result": "no significant changes in biomarkers of bone resorption"},
      {"measurement": "women exhibiting thickened endometrium after three months", "setting": "[5]; 12.5 mg (n=4)", "result": "two women"},
      {"measurement": "women exhibiting thickened endometrium after three months", "setting": "[5]; 25 mg (n=4)", "result": "One person"},
      {"measurement": "women exhibiting thickened endometrium after three months", "setting": "[5]; 50 mg (n=3)", "result": "none of the women"},
      {"measurement": "endometrial proliferation in adult females", "setting": "[5]; high dosage 50 mg/day", "result": "suppresses endometrial proliferation"},
      {"measurement": "endometrial proliferation in adult females", "setting": "[5]; lower dosages 25 mg/day and 12.5 mg/day", "result": "does not suppress endometrial proliferation"},
      {"measurement": "non-menstrual spotting and bleeding with excessive endometrial thickening, D&C performed", "setting": "[6]; 12.5 mg and 25 mg groups", "result": "two cases"},
      {"measurement": "non-menstrual spotting and bleeding with excessive endometrial thickening, D&C performed", "setting": "[6]; 50 mg dose", "result": "not seen"},
      {"measurement": "greater than normal bleeding after treatment was stopped", "setting": "[6]; 50 mg group", "result": "two patients"},
      {"measurement": "effect on the primary glucocorticoid of the rat (corticosterone)", "setting": "[7]", "result": "no strong effect"},
      {"measurement": "differences in serum corticosterone between treatment groups", "setting": "[7]; progesterone, CDB-4124 and RU-486 groups compared", "result": "No differences in serum corticosterone"}
    ]},
    {"smiles": "CNc1ccc([C@H]2C[C@@]3(C)[C@@H](CC[C@]3(OC(C)=O)C(=O)COC)[C@@H]3CCC4=CC(=O)CCC4=C32)cc1", "note": "[CDB-4453, 21-methoxy-17α-acetoxy-11β-(4-N-methylaminophenyl)-19-norpregna-4,9-diene-3,20-dione]", "values": [
      {"measurement": "anti-glucocorticoid activity relative to parent CDB-4124", "setting": "[8]", "result": "even lower anti-glucocorticoid activity than its parent"}
    ]}
  ]
}
